Tests used:
[1] = tested on: blood pressure of the rat; experiment: Blood pressure-lowering effect after single intravenous dose in anesthetized rats; type: in vivo; conditions: intravenous single dose 10 nmol/kg
Description: From the catheter tube of the right jugular vein, a physiological saline-heparin solution (physiological saline: 100 ml; heparin: 1000 units) was infused at 2.4 ml/hr. […] The catheter inserted in the carotid artery was connected to a pressure transducer. […] In the figure, the longitudinal axis indicates a difference obtained by subtracting the average blood pressure before the administration of each drug from the average blood pressure at the time of the administration of each drug.
In the case of these derivatives, the blood pressure-lowering effect was sustained even 90 minutes after the administration. […] The blood pressure-lowering effect of the adrenomedullin derivative shown in this test was well consistent with the prolonged half-life in blood shown in the above test.

in vivo = conditions: male, Wistar, rat, iv
Description: Each 11 to 14-week-old male Wistar rat was anesthetized by the inhalation of isoflurane. After tracheotomy, inhalational anesthesia was controlled at an isoflurane concentration of 1.5 to 2.5% and a flow rate of 0.6 to 0.8 L/min. The right jugular vein was isolated from the rat, and a catheter tube corresponding to 26 G was inserted thereto. Next, the left carotid artery was isolated from the rat thus treated, and a catheter tube corresponding to 23 G was inserted thereto. […] From the catheter inserted in the carotid artery, 300 μl of blood was collected over time from the start of the administration. Immediately, EDTA-2Na (300 μg) and aprotinin (21 μg) were added to the obtained blood sample, and the mixture was further centrifuged under conditions involving 3000 rpm and 10 minutes to obtain plasma. The AM concentration in the plasma of each sample was measured by chemiluminescent enzyme immunoassay. The half-lives in blood of the first and second phases were calculated from the measurement results of the AM concentration in the plasma using a two-compartment model.

AM receptor = biological target: T1, AM receptor (Homo sapiens, UniProt Q16602); experiment: Intracellular cAMP concentration-increasing effect in AM receptor-expressing HEK293 cells (cAMP ELISA); type: cell-based
T1 construct: expressed in transfected cells; host or cells: HEK293 cell line
Description: Then, the intracellular cAMP concentration in the HEK293 cells of each test sample was measured using an ELISA kit for cAMP measurement (GE Healthcare Japan Corp., #RPN2251).

[2] = tested on: DSS-induced enteritis (inflammatory bowel disease model); experiment: Therapeutic effect on DSS-induced inflammatory bowel disease model (total score, length of intestinal tract); type: in vivo, mouse; set-up: total score, median value / total score, mean±standard deviation: scale not given here; conditions: for total score as compared with the control group: Steel's multiple comparison test, p<0.05 or P<0.01
Description: The body weight of the subject mouse was measured 3, 5, 7, 10 and 14 days after the start of the administration.
The body weight of the subject mouse and the form of stool thereof were evaluated 3, 5, 7, 10 and 14 days after the start of the administration on the basis of scoring criteria given below. The obtained scores were summed to calculate the total score of each sample.
The intestinal tract excised by anatomy was opened along its longitudinal axis, and fat tissues were removed, followed by washing with physiological saline. Next, the length of the intestinal tract was measured.
The total score evaluated by the procedures described above is indicated by a median value [mean±standard deviation]. The total scores of the control group obtained 3, 5, 7, 10 and 14 days after the start of the administration were 0.0 [0.6±0.3], 4.0 [3.7±0.4], 6.0 [5.4±0.5], 3.5 [4.1±0.4] and 0.0 [0.0±0.0], respectively.

[3] = second-phase half-life in blood
[4] = 0.02 nmol/kg/hr, 3 days after the start of the administration
[5] = 0.1 nmol/kg/hr, 3 days after the start of the administration
[6] = 0.5 nmol/kg/hr, 3 days after the start of the administration

T1 sequence (Q16602 23-461): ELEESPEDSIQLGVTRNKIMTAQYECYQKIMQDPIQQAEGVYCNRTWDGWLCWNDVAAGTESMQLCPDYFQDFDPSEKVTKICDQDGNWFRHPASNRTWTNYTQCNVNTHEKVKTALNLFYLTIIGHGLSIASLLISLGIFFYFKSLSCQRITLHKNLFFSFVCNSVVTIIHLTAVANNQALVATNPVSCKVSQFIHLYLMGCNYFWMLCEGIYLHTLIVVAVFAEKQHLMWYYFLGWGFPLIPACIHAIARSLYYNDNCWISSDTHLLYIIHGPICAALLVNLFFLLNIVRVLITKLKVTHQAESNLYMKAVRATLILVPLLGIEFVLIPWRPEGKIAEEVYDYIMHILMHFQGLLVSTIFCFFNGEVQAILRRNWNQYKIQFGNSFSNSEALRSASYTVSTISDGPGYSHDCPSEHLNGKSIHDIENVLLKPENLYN
T1 sequence (O60895 43-175 partner): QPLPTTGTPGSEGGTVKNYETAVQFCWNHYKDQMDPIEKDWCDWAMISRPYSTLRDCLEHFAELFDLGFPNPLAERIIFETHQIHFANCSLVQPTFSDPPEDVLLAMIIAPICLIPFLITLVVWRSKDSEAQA

CC[C@H](C)[C@H](NC(=O)[C@H](CCC(N)=O)NC(=O)[C@H](Cc1c[nH]cn1)NC(=O)[C@H](C)NC(=O)[C@H](CC(C)C)NC(=O)[C@H](CCCCN)NC(=O)[C@H](CCC(N)=O)NC(=O)[C@@H](NC(=O)[C@@H](NC(=O)[C@@H]1CSSC[C@H](NC(=O)CNC(=O)[C@H](Cc2ccccc2)NC(=O)[C@H](CO)NC(=O)[C@H](CCCNC(=N)N)NC(=O)[C@H](CC(C)C)NC(=O)CNC(=O)[C@H](CCC(N)=O)NC(=O)[C@H](Cc2ccccc2)NC(=O)[C@H](CC(N)=O)NC(=O)[C@H](CC(N)=O)NC(=O)[C@H](CCSC)NC(=O)[C@H](CO)NC(=O)[C@H](CCC(N)=O)NC(=O)[C@H](CCCNC(=N)N)NC(=O)[C@@H](N)Cc2ccc(O)cc2)C(=O)N[C@@H](CCCNC(=N)N)C(=O)N[C@@H](Cc2ccccc2)C(=O)NCC(=O)N[C@@H]([C@@H](C)O)C(=O)N1)[C@@H](C)O)C(C)C)C(=O)N[C@@H](Cc1ccc(O)cc1)C(=O)N[C@@H](CCC(N)=O)C(=O)N[C@@H](Cc1ccccc1)C(=O)N[C@H](C(=O)N[C@@H](CC(=O)O)C(=O)N[C@@H](CCCCN)C(=O)N[C@@H](CC(=O)O)C(=O)N[C@@H](CCCCN)C(=O)N[C@@H](CC(=O)O)C(=O)N[C@@H](CC(N)=O)C(=O)N[C@H](C(=O)N[C@@H](C)C(=O)N1CCC[C@H]1C(=O)N[C@@H](CCCNC(=N)N)C(=O)N[C@@H](CO)C(=O)N[C@@H](CCCCN)C(=O)N[C@H](C(=O)N[C@@H](CO)C(=O)N1CCC[C@H]1C(=O)N[C@@H](CCC(N)=O)C(=O)NCC(=O)N[C@@H](Cc1ccc(O)cc1)C(N)=O)[C@@H](C)CC)C(C)C)[C@@H](C)O [h.AM(1-52), reference compound]
effect on blood pressure [1]: lowered the blood pressure | time after the administration at which the blood pressure before the administration was restored [1]: 30 min | time of maximum pressure drop after the administration [1]: 2 min | half-life (in vivo; first-phase half-life in blood): 0.61 min | half-life (in vivo; [3]): 18.9 min

CCCCCCCCCCCCCCCC(=O)N[C@@H](Cc1ccc(O)cc1)C(=O)N[C@@H](CCCNC(=N)N)C(=O)N[C@@H](CCC(N)=O)C(=O)N[C@@H](CO)C(=O)N[C@@H](CCSC)C(=O)N[C@@H](CC(N)=O)C(=O)N[C@@H](CC(N)=O)C(=O)N[C@@H](Cc1ccccc1)C(=O)N[C@@H](CCC(N)=O)C(=O)NCC(=O)N[C@@H](CC(C)C)C(=O)N[C@@H](CCCNC(=N)N)C(=O)N[C@@H](CO)C(=O)N[C@@H](Cc1ccccc1)C(=O)NCC(=O)N[C@H]1CSSC[C@@H](C(=O)N[C@H](C(=O)N[C@H](C(=O)N[C@@H](CCC(N)=O)C(=O)N[C@@H](CCCCN)C(=O)N[C@@H](CC(C)C)C(=O)N[C@@H](C)C(=O)N[C@@H](Cc2c[nH]cn2)C(=O)N[C@@H](CCC(N)=O)C(=O)N[C@H](C(=O)N[C@@H](Cc2ccc(O)cc2)C(=O)N[C@@H](CCC(N)=O)C(=O)N[C@@H](Cc2ccccc2)C(=O)N[C@H](C(=O)N[C@@H](CC(=O)O)C(=O)N[C@@H](CCCCN)C(=O)N[C@@H](CC(=O)O)C(=O)N[C@@H](CCCCN)C(=O)N[C@@H](CC(=O)O)C(=O)N[C@@H](CC(N)=O)C(=O)N[C@H](C(=O)N[C@@H](C)C(=O)N2CCC[C@H]2C(=O)N[C@@H](CCCNC(=N)N)C(=O)N[C@@H](CO)C(=O)N[C@@H](CCCCN)C(=O)N[C@H](C(=O)N[C@@H](CO)C(=O)N2CCC[C@H]2C(=O)N[C@@H](CCC(N)=O)C(=O)NCC(=O)N[C@@H](Cc2ccc(O)cc2)C(N)=O)[C@@H](C)CC)C(C)C)[C@@H](C)O)[C@@H](C)CC)C(C)C)[C@@H](C)O)NC(=O)[C@H]([C@@H](C)O)NC(=O)CNC(=O)[C@H](Cc2ccccc2)NC(=O)[C@H](CCCNC(=N)N)NC1=O [Pal-h.AM(1-52)]
EC50 (AM receptor): 3.24 nM | maximum response value of increase in cAMP concentration as compared with h.AM(1-52) (AM receptor; AM receptor-expressing HEK293 cells): substantially equivalent | effect on blood pressure [1]: lowered the blood pressure | maximum pressure drop value compared with h.AM(1-52) [1]: lower than the value of h.AM(1-52) | half-life (in vivo; first-phase half-life in blood): 3.51 min | half-life (in vivo; [3]): 123 min

PEG5000-h.AM(1-52): human adrenomedullin (1-52) N-terminally linked to PEG having an average molecular weight of 5000 via 1-oxo-1,6-hexanediyl
effect on blood pressure [1]: lowered the blood pressure | maximum pressure drop value compared with h.AM(1-52) [1]: lower than the value of h.AM(1-52) | total score, mean±standard deviation [2, 4]: 0.8±0.2 | total score, median value [2, 4]: 1.0 | total score, mean±standard deviation ([2]; 0.02 nmol/kg/hr, 5 days): 2.8±0.5 | total score, median value ([2]; 0.02 nmol/kg/hr, 5 days): 2.5 | total score, mean±standard deviation ([2]; 0.02 nmol/kg/hr, 7 days): 5.7±0.4 | total score, median value ([2]; 0.02 nmol/kg/hr, 7 days): 5.5 | total score, mean±standard deviation ([2]; 0.02 nmol/kg/hr, 10 days): 3.1±0.8 | total score, median value ([2]; 0.02 nmol/kg/hr, 10 days): 2.5 | length of the intestinal tract (mean±standard deviation) ([2]; 0.02 nmol/kg/hr, 14 days): 69.4±1.5 mm | total score, mean±standard deviation ([2]; 0.02 nmol/kg/hr, 14 days): 0.0±0.0 | total score, median value ([2]; 0.02 nmol/kg/hr, 14 days): 0.0 | total score, mean±standard deviation [2, 5]: 0.7±0.3 | total score, median value [2, 5]: 0.0 | total score, mean±standard deviation ([2]; 0.1 nmol/kg/hr, 5 days): 1.9±0.5 | total score, median value ([2]; 0.1 nmol/kg/hr, 5 days): 1.5 | total score, mean±standard deviation ([2]; 0.1 nmol/kg/hr, 7 days): 4.1±0.4 | total score, median value ([2]; 0.1 nmol/kg/hr, 7 days): 5.0 | total score, mean±standard deviation ([2]; 0.1 nmol/kg/hr, 10 days): 2.0±0.5 | total score, median value ([2]; 0.1 nmol/kg/hr, 10 days): 2.0 | total score as compared with the control group ([2]; 0.1 nmol/kg/hr, 10 days): significant decrease | length of the intestinal tract (mean±standard deviation) ([2]; 0.1 nmol/kg/hr, 14 days): 71.4±0.9 mm | total score, mean±standard deviation ([2]; 0.1 nmol/kg/hr, 14 days): 0.0±0.0 | total score, median value ([2]; 0.1 nmol/kg/hr, 14 days): 0.0 | total score as compared with the control group ([2]; 0.5 nmol/kg/hr, 5, 7 and 10 days): significant decrease | total score, mean±standard deviation [2, 6]: 1.3±0.3 | total score, median value [2, 6]: 1.0 | total score, mean±standard deviation ([2]; 0.5 nmol/kg/hr, 5 days): 1.1±0.3 | total score, median value ([2]; 0.5 nmol/kg/hr, 5 days): 1.5 | total score, mean±standard deviation ([2]; 0.5 nmol/kg/hr, 7 days): 3.0±0.3 | total score, median value ([2]; 0.5 nmol/kg/hr, 7 days): 3.0 | total score, mean±standard deviation ([2]; 0.5 nmol/kg/hr, 10 days): 2.1±0.4 | total score, median value ([2]; 0.5 nmol/kg/hr, 10 days): 2.0 | length of the intestinal tract (mean±standard deviation) ([2]; 0.5 nmol/kg/hr, 14 days): 72.4±0.9 mm | total score, mean±standard deviation ([2]; 0.5 nmol/kg/hr, 14 days): 0.0±0.0 | total score, median value ([2]; 0.5 nmol/kg/hr, 14 days): 0.0 | length of the intestinal tract as compared with the control group ([2]; all of 0.02, 0.1 and 0.5 nmol/kg/hr, Dunnett's multiple comparison test, P<0.05 or P<0.01): significantly different

Reference: patent publication US11414474B2, “Long-acting adrenomedullin derivatives” (University of Miyazaki, priority 2014, dated 2022)
